From ChEMBL document CHEMBL1125804, “Antitumor agents. 120. New 4-substituted benzylamine and benzyl ether derivatives of 4'-O-demethylepipodophyllotoxin as potent inhibitors of human DNA topoisomerase II” (1991)

Assays:
[1] = target: DNA topoisomerase II (Homo sapiens) (UniProt P11388+Q02880); assay: Inhibition of human DNA topoisomerase II; assay type: protein assay
[2] = 50% reduction in KB cell number after a 3-day incubation.; assay type: functional; settings: Homo sapiens, 72 h, read-out: ID50 (the source's name)
Nucleic Acid [3] = assay: % complex formation of cellular protein -DNA complex at a concentration of 10 uM; assay type: functional; settings: Homo sapiens
Nucleic Acid [4] = assay: Compound was tested for the % complex formation of cellular protein -DNA complex at a concentration of 10 uM; assay type: functional; settings: Homo sapiens
[5] = Compound was tested for the concentration to afford 50% reduction in KB cell number after a 3-day incubation; assay type: functional; settings: Homo sapiens, 72 h, read-out: ID50 (the source's name)

Row | Structure (SMILES) | ID50 [1] | IC50 [2] | Complex formation (Nucleic Acid [3]) | Complex formation (Nucleic Acid [4]) | IC50 [5]
1 | COc1cc([C@@H]2c3cc4c(cc3[C@@H](NCc3ccccc3[N+](=O)[O-])[C@H]3COC(=O)[C@H]23)OCO4)cc(OC)c1O | 50000 nM | 1800 nM | 144% | – | –
2 | COc1cc([C@@H]2c3cc4c(cc3[C@@H](NCc3cccc([N+](=O)[O-])c3)[C@H]3COC(=O)[C@H]23)OCO4)cc(OC)c1O | 25000 nM | < 400 nM | 130% | – | –
3 | COc1cc([C@@H]2c3cc4c(cc3[C@@H](NCc3ccccc3N)[C@H]3COC(=O)[C@H]23)OCO4)cc(OC)c1O | 25000 nM | < 400 nM | 184% | – | –
4 | COc1cc([C@@H]2c3cc4c(cc3[C@@H](OCc3ccccc3)[C@H]3COC(=O)[C@H]23)OCO4)cc(OC)c1O | > 100000 nM | 2400 nM | < 25% | – | –
5 | COc1cc([C@@H]2c3cc4c(cc3[C@@H](NCc3ccccc3)[C@H]3COC(=O)[C@H]23)OCO4)cc(OC)c1O | 25000 nM | 2200 nM | 181% | – | –
6 | COc1cc([C@@H]2c3cc4c(cc3[C@@H](NCc3ccc(F)cc3)[C@H]3COC(=O)[C@H]23)OCO4)cc(OC)c1O | 50000 nM | > 4000 nM | 169% | – | –
7 | COc1cc([C@@H]2c3cc4c(cc3[C@@H](NCc3cccc(F)c3)[C@H]3COC(=O)[C@H]23)OCO4)cc(OC)c1O | 25000 nM | 3000 nM | 216% | – | –
8 | COc1cc([C@@H]2c3cc4c(cc3[C@@H](NCc3cccc(N)c3)[C@H]3COC(=O)[C@H]23)OCO4)cc(OC)c1O | 25000 nM | < 400 nM | 191% | – | –
9 | COc1cc([C@@H]2c3cc4c(cc3[C@@H](NCc3ccccc3F)[C@H]3COC(=O)[C@H]23)OCO4)cc(OC)c1O | 100000 nM | 1900 nM | 126% | – | –
10 | COc1cc([C@@H]2c3cc4c(cc3[C@@H](Nc3ccc(N)cc3)[C@H]3COC(=O)[C@H]23)OCO4)cc(OC)c1O | – | 800 nM | 330% | – | –
11 | COc1cc(CN[C@@H]2c3cc4c(cc3[C@@H](c3cc(OC)c(O)c(OC)c3)[C@H]3C(=O)OC[C@@H]32)OCO4)cc(OC)c1 | 100000 nM | 1700 nM | 144% | – | –
12 | COc1cc([C@@H]2c3cc4c(cc3[C@@H](OCc3ccc([N+](=O)[O-])cc3)[C@H]3COC(=O)[C@H]23)OCO4)cc(OC)c1O | > 100000 nM | 1900 nM | < 25% | – | –
13 | COc1cc([C@@H]2c3cc4c(cc3[C@@H](Nc3ccc(F)cc3)[C@H]3COC(=O)[C@H]23)OCO4)cc(OC)c1O | – | 240 nM | 213% | – | –
14 | COc1cc([C@@H]2c3cc4c(cc3[C@@H](NCc3ccc(C#N)cc3)[C@H]3COC(=O)[C@H]23)OCO4)cc(OC)c1O | 25000 nM | < 400 nM | 284% | – | –
15 | COc1cc([C@@H]2c3cc4c(cc3[C@@H](O[C@@H]3O[C@@H]5CO[C@@H](C)O[C@H]5[C@H](O)[C@H]3O)[C@H]3COC(=O)[C@H]23)OCO4)cc(OC)c1O [ETOPOSIDE] | – | 200 nM | – | 100% | –
16 | COc1cc([C@@H]2c3cc4c(cc3[C@@H](Nc3ccc([N+](=O)[O-])cc3)[C@H]3COC(=O)[C@H]23)OCO4)cc(OC)c1O | – | – | – | 323% | 490 nM
17 | COc1cc([C@@H]2c3cc4c(cc3[C@@H](NCc3ccc([N+](=O)[O-])cc3)[C@H]3COC(=O)[C@H]23)OCO4)cc(OC)c1O | 50000 nM | 400 nM | 216% | – | –
18 | COc1cc([C@@H]2c3cc4c(cc3[C@@H](NCc3cccc(Cl)c3)[C@H]3COC(=O)[C@H]23)OCO4)cc(OC)c1O | 50000 nM | 1200 nM | 159% | – | –
19 | COc1cc([C@@H]2c3cc4c(cc3[C@@H](NCc3ccc(C(F)(F)F)cc3)[C@H]3COC(=O)[C@H]23)OCO4)cc(OC)c1O | 100000 nM | 2300 nM | 99% | – | –
20 | COc1cc([C@@H]2c3cc4c(cc3[C@@H](NCc3cccc(C#N)c3)[C@H]3COC(=O)[C@H]23)OCO4)cc(OC)c1O | 25000 nM | < 400 nM | 225% | – | –
